Tests used:
[1] = serum half-life; type: in vivo; settings: in words; compared with ceftriaxone
[2] = test system: Bacteroides fragilis VP1 8908; experiment: MIC of ceftriaxone, alone and with compound of formula (I); type: cell-based
[3] = test system: Klebsiella pneumoniae 4; experiment: as above; type: cell-based
[4] = test system: Enterobacter cloacae P99; experiment: as above; type: cell-based
[5] = test system: Bacteroides fragilis; settings: coadministration with tazobactam; J. Antimicrobial Chemotherapy (1993), 32, 307-312; cited from earlier work
[6] = in vivo; cited from earlier work
[7] = test system: various microorganisms; experiment: enhancement of antibacterial activity of ceftriaxone by compound of formula (I) (MIC data overall); type: cell-based; settings: with 1 μg/ml compound of formula (I); from β-lactamase inhibitory effect
[8] = ceftriaxone + 1 μg/1 ml of compound of Formula (I)

serum half life [1] | SMILES | MIC ([2]; VP18908, ceftriaxone alone) [µg/mL] | MIC + 1 μg/1 ml of compound of Formula (I) [2, 8] [µg/mL] | MIC + 1 μg/1 ml of compound of Formula (I) [3, 8] [µg/mL] | MIC ([3]; ceftriaxone alone) [µg/mL] | MIC + 1 μg/1 ml of compound of Formula (I) ([4]; Enterobacter cloacae P99, ceftriaxone + 1 μg/1 ml of compound of Formula (I)) [µg/mL] | MIC ([4]; Enterobacter cloacae, P99, read-out: MIC Ceftriaxone alone) [µg/mL] | activity of ceftriaxone against anaerobes such as Bacteroides fragilis [5] | serum half-lives [6] | enhancement of antibacterial activity of ceftriaxone [7]
more compatible with ceftriaxone | O=C([O-])C1=CS[C@@H]2/C(=C\c3cn4c(n3)SCC4)C(=O)N12.[Na+] (racemic) |  |  |  |  |  |  |  |  | 
 | CO/N=C(\C(=O)N[C@@H]1C(=O)N2C(C(=O)O)=C(CSc3nc(=O)c(=O)[nH]n3C)CS[C@H]12)c1csc(N)n1 [Ceftriaxone, [6R-[6α,7β(Z)]]-7-[[(2-Amino4-thiazolyl)(methoxyimino)acetyl]amino]-8-oxo-3-[[(1,2,5,6-tetrahydro-2-methyl-5-6-dioxo-1,2,4-triazin-3-yl)thio]-methyl]-5-thia-1-azabicyclo[4-2-O]oct-2-ene-2-carboxylic acid] | 128 | 2 | 0.5 | 16 | 0.5 | 128 | enhanced by coadministration with the β-lactamaseinhibitor tazobactam | ca. 8 hours | substantial enhancement of antibacterial activity
 | C[C@]1(Cn2ccnn2)[C@H](C(=O)O)N2C(=O)C[C@H]2S1(=O)=O [tazobactam] |  |  |  |  |  |  |  | ca. 1 hours | 
